Laboratory results taken from the supplement of paper PMC13380429.

Columns and labels:
Conditions in all cases: 72 h
Caco-2 [1] = assay: drug sensitivity score (DSS) for viability; higher = more toxic; extreme values may be limits of the assay
U2OS [2] = assay: as above
Vero E6 [3] = assay: as above
HepG2 [4] = assay: as above
Calu-3 [5] = assay: as above
Caco-2 [6] = assay: relative viability EC50 (midpoint between 100% and the lowest measured viability); higher = less toxic
U2OS [7] = assay: as above
Vero E6 [8] = assay: as above
HepG2 [9] = assay: as above
Calu-3 [10] = assay: as above
Caco-2 [11] = assay: cell viability relative to DMSO; higher = less toxic
U2OS [12] = assay: as above
Vero E6 [13] = assay: as above
HepG2 [14] = assay: as above
Calu-3 [15] = assay: as above

| Structure (SMILES) | drug sensitivity score (Caco-2 [1]) | drug sensitivity score (U2OS [2]) | drug sensitivity score (Vero E6 [3]) | drug sensitivity score (HepG2 [4]) | drug sensitivity score (Calu-3 [5]) | relative viability EC50 (Caco-2 [6]) [µM] | relative viability EC50 (U2OS [7]) [µM] | relative viability EC50 (Vero E6 [8]) [µM] | relative viability EC50 (HepG2 [9]) [µM] | relative viability EC50 (Calu-3 [10]) [µM] | cell viability (Caco-2 [11]; 1 nM) [%] | cell viability (Caco-2 [11]; 10 nM) [%] | cell viability (Caco-2 [11]; 100 nM) [%] | cell viability (Caco-2 [11]; 1000 nM) [%] | cell viability (Caco-2 [11]; 10000 nM) [%] | cell viability (U2OS [12]; 1 nM) [%] | cell viability (U2OS [12]; 10 nM) [%] | cell viability (U2OS [12]; 100 nM) [%] | cell viability (U2OS [12]; 1000 nM) [%] | cell viability (U2OS [12]; 10000 nM) [%] | cell viability (Vero E6 [13]; 1 nM) [%] | cell viability (Vero E6 [13]; 10 nM) [%] | cell viability (Vero E6 [13]; 100 nM) [%] | cell viability (Vero E6 [13]; 1000 nM) [%] | cell viability (Vero E6 [13]; 10000 nM) [%] | cell viability (HepG2 [14]; 1 nM) [%] | cell viability (HepG2 [14]; 10 nM) [%] | cell viability (HepG2 [14]; 100 nM) [%] | cell viability (HepG2 [14]; 1000 nM) [%] | cell viability (HepG2 [14]; 10000 nM) [%] | cell viability (Calu-3 [15]; 1 nM) [%] | cell viability (Calu-3 [15]; 10 nM) [%] | cell viability (Calu-3 [15]; 100 nM) [%] | cell viability (Calu-3 [15]; 1000 nM) [%] | cell viability (Calu-3 [15]; 10000 nM) [%] |
| --- | --- | --- | --- | --- | --- | --- | --- | --- | --- | --- | --- | --- | --- | --- | --- | --- | --- | --- | --- | --- | --- | --- | --- | --- | --- | --- | --- | --- | --- | --- | --- | --- | --- | --- | --- |
| CCCCCCCCCCCCCCCC(=O)OC(C)C [isopropyl-palmitate] | 0 | 0 | 0 | 0 | 0 | > 10 | > 10 | > 10 | > 10 | > 10 | 101 | 102 | 109 | 90.8 | 90.4 | 102 | 95.9 | 97.5 | 93.2 | 97.7 | 96 | 98.8 | 99 | 98.8 | 97.2 | 92.2 | 102 | 99 | 94.8 | 95.8 | 106 | 96.6 | 94.3 | 93.8 | 101 |
| CCN(CC)CCNC(=O)COc1ccc(OC)cc1 [mefexamide] | 0.1 | 0 | 0 | 0 | 0 | > 10 | > 10 | > 10 | > 10 | > 10 | 93 | 98.3 | 81.7 | 81.9 | 102 | 97.9 | 99.3 | 104 | 98 | 102 | 95.1 | 106 | 95.4 | 96.8 | 108 | 114 | 73.9 | 92.7 | 114 | 119 | 108 | 106 | 109 | 106 | 98.5 |
| CC(C)S(=O)(=O)NC[C@H](C)c1ccc(-c2ccc(CCNS(C)(=O)=O)cc2)cc1 [mibampator] | 0.3 | 0 | 0 | 5.7 | 0.2 | > 10 | > 10 | > 10 | 1.85 | > 10 | 96.4 | 100 | 101 | 103 | 83 | 99.1 | 102 | 100 | 104 | 94.1 | 90.8 | 98 | 95.1 | 94 | 95.6 | 107 | 105 | 101 | 88.2 | 32.6 | 101 | 107 | 99.9 | 99.9 | 86.2 |
| COc1cc2c(cc1OC)[C@@H](Cc1cc(OC)c(OC)c(OC)c1)[N+](C)(CCCOC(=O)CC/C=C/CCC(=O)OCCC[N+]1(C)CCc3cc(OC)c(OC)cc3[C@H]1Cc1cc(OC)c(OC)c(OC)c1)CC2 (stereo not given in full) [mivacurium] | 0 | 0 | 0 | 0 | 0 | > 10 | > 10 | > 10 | > 10 | > 10 | 107 | 98.9 | 109 | 123 | 94.5 | 102 | 99.8 | 98.6 | 96.3 | 100 | 106 | 112 | 105 | 97.7 | 93 | 101 | 95.2 | 99.4 | 84.3 | 97.7 | 112 | 97.6 | 101 | 89.7 | 94 |
| CCCN(CCC)C(=O)C1=Cc2ccc(-c3ccc(C(=O)N4CCCC4)cc3)cc2N=C(N)C1 [motolimod] | 0 | 0 | 0 | 2.5 | 0 | > 10 | > 10 | > 10 | 4 | > 10 | 102 | 106 | 124 | 109 | 100 | 106 | 101 | 99.6 | 98.1 | 92 | 102 | 102 | 98.1 | 99.2 | 91.6 | 107 | 113 | 89.7 | 114 | 40.6 | 121 | 103 | 112 | 112 | 98.1 |
| NCc1cc(O)no1 [muscimol] | 0 | 0 | 0 | 0 | 0 | > 10 | > 10 | > 10 | > 10 | > 10 | 94.7 | 96.5 | 98.4 | 99.5 | 103 | 101 | 94.6 | 99.6 | 98.6 | 97.3 | 98.8 | 97 | 93.1 | 97.1 | 101 | 96.8 | 105 | 97.7 | 98.1 | 94.5 | 91.6 | 95.7 | 98.3 | 104 | 97.3 |
| CNS(=O)(=O)CCc1ccc2[nH]cc(C3CCN(C)CC3)c2c1 [naratriptan] | 0 | 0 | 0 | 0 | 0 | > 10 | > 10 | > 10 | > 10 | > 10 | 97.5 | 105 | 92.7 | 100 | 105 | 102 | 106 | 99.2 | 99.8 | 95.9 | 98.9 | 100 | 91.9 | 99.7 | 96.7 | 102 | 98.2 | 105 | 103 | 108 | 114 | 94.1 | 94.7 | 97 | 107 |
| CN1Cc2c(N)cccc2C(c2ccccc2)C1 (stereo not given) [nomifensine] | 0 | 0 | 0 | 0 | 0 | > 10 | > 10 | > 10 | > 10 | > 10 | 97.1 | 95 | 98 | 94.6 | 103 | 101 | 100 | 102 | 101 | 96.3 | 97.9 | 96.8 | 94.2 | 99.4 | 110 | 106 | 110 | 93.5 | 103 | 97.3 | 104 | 98.2 | 100 | 106 | 96.8 |
| O=Cc1cn(Cc2ccc(Cl)cc2)c2ccccc12 [oncrasin-1] | 0 | 0 | 0 | 12.5 | 0 | > 10 | > 10 | > 10 | 0.847 | > 10 | 92.2 | 90.8 | 97.2 | 101 | 98.6 | 97.2 | 96.8 | 102 | 100 | 101 | 90.4 | 102 | 94.1 | 95.9 | 103 | 101 | 110 | 104 | 40.3 | 1.2 | 94.8 | 100 | 96.2 | 99.8 | 106 |
| OCCN1CCN(CCCN2c3ccccc3C=Cc3ccccc32)CC1 [opipramol] | 0.8 | 0 | 0.5 | 0 | 0 | > 10 | > 10 | > 10 | > 10 | > 10 | 89.8 | 102 | 88.6 | 100 | 76.6 | 97.6 | 95.6 | 101 | 103 | 97 | 107 | 99.8 | 104 | 98.5 | 83.9 | 107 | 104 | 98 | 91.4 | 92.1 | 100 | 93.3 | 99.7 | 100 | 98 |
| Cc1cnc(C(=O)N[C@H]2CCCCC/C=C\[C@@H]3C[C@@]3(C(=O)NS(=O)(=O)C3CC3)NC(=O)[C@@H]3C[C@@H](Oc4nc5ccccc5c5ccccc45)CN3C2=O)cn1 [paritaprevir] | 0 | 0 | 0 | 0 | 0 | > 10 | > 10 | > 10 | > 10 | > 10 | 110 | 94.8 | 103 | 95 | 99.1 | 105 | 105 | 107 | 94.8 | 96.4 | 99.8 | 93.9 | 97 | 94 | 98.8 | 108 | 96.8 | 105 | 94.7 | 109 | 110 | 108 | 107 | 99.9 | 102 |
| CCOc1ccc(NC(C)=O)cc1 [phenacetin] | 0.1 | 0 | 0 | 0 | 0 | > 10 | > 10 | > 10 | > 10 | > 10 | 105 | 81.8 | 101 | 110 | 85.9 | 100 | 94.6 | 90.2 | 90.3 | 97.8 | 109 | 102 | 108 | 96 | 102 | 95.8 | 77.6 | 90.8 | 93.7 | 84.1 | 90.3 | 90.8 | 99.5 | 94.3 | 104 |
| O=S1(=O)OC(c2ccc(O)cc2)(c2ccc(O)cc2)c2ccccc21 [phenolsulfonphthalein] | 0.1 | 0 | 0 | 0 | 0 | > 10 | > 10 | > 10 | > 10 | > 10 | 102 | 108 | 96.1 | 93.7 | 87.9 | 99.5 | 104 | 98 | 103 | 96.4 | 105 | 102 | 100 | 93.8 | 100 | 99.3 | 94.5 | 99.3 | 99.6 | 93.5 | 108 | 104 | 83.5 | 110 | 93.2 |
| O=C(O)CCCc1ccccc1 [phenylbutyrate] | 0 | 0 | 0 | 0 | 0 | > 10 | > 10 | > 10 | > 10 | > 10 | 79.8 | 100 | 90.4 | 97 | 107 | 99.9 | 105 | 104 | 103 | 103 | 106 | 95.6 | 104 | 93.2 | 106 | 111 | 81.8 | 105 | 104 | 96.1 | 94.6 | 112 | 113 | 109 | 105 |
